Assay results reported in patent US20060029674A1, “Stable amorphous Cefdinir” (priority 2004, published 2006).

What was measured:
[1] = Glass transition temperature (Tg) by thermally stimulated current spectroscopy; format: physicochemical
Protocol: The glass transition temperature (Tg) determined by thermally stimulated current spectroscopy was 67° C. This value of 67° C. is considerably higher than ambient temperature, and as a rule of thumb high Tg values are desirable for room temperature stability.
The glass transition temperature (Tg) determined by thermally stimulated current spectroscopy was 102° C. […] The higher Tg observed for the cefdinir-EPO sample relative to the individual components further confirms specific interaction.
The glass transition temperature (Tg) determined by thermally stimulated current spectroscopy was 95° C.

[2] = Physical stability of the isolated amorphous material; format: physicochemical; conditions: isolated by evaporating a methanolic solution
Source text: Amorphous Cefdinir was isolated by evaporating a methanolic solution of cefdinir hydrate. […] Stable amorphous Cefdinir with Eudragit EPO was made and isolated by evaporating a methanolic solution. […] Amorphous cefdinir with PVP was made and isolated by evaporating a methanolic solution.

[3] = material taught in U.S. Pat. No. 4,559,334; cited from earlier work

Row | glass transition temperature (Tg) [1] | physical stability of the amorphous material [2] | Compound | stability of prior-art amorphous material [3]
1 | 67 °C | physically stable | C=CC1=C(C(=O)O)N2C(=O)C(NC(=O)C(=NO)c3csc(N)n3)[C@H]2SC1 (single isomer, unassigned) [Amorphous Cefdinir, 7-[2-(2-aminothiazol-4-yl)-2-hydroxyiminoacetamido]-3-vinyl-3-cephem-4-carboxylic acid (syn isomer)] | –
2 | – | – | C=CC1=C(C(=O)O)N2C(=O)[C@@H](NC(=O)/C(=N\O)c3csc(N)n3)[C@H]2SC1 [crystalline-like amorphous material] | unstable
